From patent US20250109121A1, “POTENT AND SELECTIVE SMARCA2 DEGRADING CHIMERIC MOLECULES AS CANCER THERAPEUTICS” (BOARD OF REGENTS, THE UNIVERSITY OF TEXAS SYSTEM, priority 2021, published 2025)
pIC50: −log10 of the molar value. “Also recorded” adds a separate entry of the source. Like-named read-outs stand apart in the source and are kept apart here.

How the values were obtained:
Format in all cases: cell-based
SMARCA2 [1] = molecular target: T1, SMARCA2 (Homo sapiens, UniProt P51531); assay: SMARCA2 degradation in cell lines, western blot
Procedure: Cell lines with wild-type SMARCA4 (H1975, H1792, H2122, and H441) were treated with DMSO or 0.001, 0.01, 0.1, 1, or 10 μm of ACBI1 (degrader of SMARCA2, SMARCA4 and polybromo-associated BAF complex PBRM1) or Compound 101 and expression levels of SMARCA2 (FIG. 2A) and SMARCA4 (FIG. 2B) were detected by western blot.
Cell lines with wild-type SMARCA4 (H1792) and mutant SMARCA4 (H1299) were treated for 72 h or 96 h with DMSO or 0.001, 0.01, 0.1, 1, or 10 μm Compound 103 and analyzed by western blot for SMARCA2, SMARCA4, and PBRM1 expression (FIGS. 4A, 4B, and 4C).
Cell lines with wild-type SMARCA4 (H1792) and mutant SMARCA4 (H1299) were treated for 72 h or 96 h with DMSO or 0.001, 0.01, 0.1, 1, or 10 μm Compound 102 and analyzed by western blot for SMARCA2, SMARCA4, and PBRM1 expression (FIGS. 5A, 5B, and 5C).
Cell lines with wild-type SMARCA4 (H1975) were treated with DMSO or 0.001, 0.01, 0.1, 1, or 10 μm of Compounds 104, 105, 106, 107, or 108 and analyzed by western blot for SMARCA2, SMARCA4, and PBRM1 expression (FIGS. 6A and 6B).

mutant SMARCA4 cells = assay: Colony assay / cell proliferation, mutant SMARCA4 cell lines as a group
Procedure: (§1) Cell lines with wild-type SMARCA4 (HCC44, H2122, H1792 and H1975) and cell lines with mutant SMARCA4 (H1693, HCC515, H322, and H1299) were seeded in appropriate dilutions to form colonies in about 1-3 weeks. Cells were treated with ACBI1 or Compound 101 at concentrations of 0.001, 0.01, 0.1, 1, and 10 μm. Colonies were fixed with glutaraldehyde (6% v/v), stained with crystal violet (0.5% w/v) and the percent area of colonies was determined (FIGS. 3A and 3B). In cell lines with wild-type SMARCA4, inhibition of colony growth was more pronounced after treatment with ACBI1 than Compound 101 (FIG. 3A).

HCC827 = assay: Cell proliferation (colony assay) IC50; settings: Homo sapiens; HCC827, wild-type SMARCA4
H2023 = assay: Cell proliferation (colony assay) IC50; settings: NCI-H2023; H2023, mutant SMARCA4
HCC2279 = assay: Cell proliferation (colony assay) IC50; settings: HCC2279, wild-type SMARCA4
H2228 = assay: Cell proliferation (colony assay) IC50; settings: Homo sapiens, NCI-H2228; H2228, wild-type SMARCA4
H1793 = assay: Cell proliferation (colony assay) IC50; settings: Homo sapiens, NCI-H1793; H1793, mutant SMARCA4
H2126 = assay: Cell proliferation (colony assay) IC50; settings: Homo sapiens, NCI-H2126; H2126, mutant SMARCA4
SMARCA2 [2] = molecular target: T1, SMARCA2; assay: SMARCA2 degradation in cell lines, western blot; remark: listed apart in the source
H2122 = assay: Cell proliferation (colony assay) IC50; settings: Homo sapiens, NCI-H2122; H2122, wild-type SMARCA4
Procedure: as §1

H1693 = assay: Cell proliferation (colony assay) IC50; settings: Homo sapiens, NCI-H1693; H1693, mutant SMARCA4
Procedure: as §1

H1975 = assay: Cell proliferation (colony assay) IC50; settings: Homo sapiens, NCI-H1975; H1975, wild-type SMARCA4; concentration at which 50% of cellular proliferation is inhibited
Procedure: as §1

H1792 = assay: Cell proliferation (colony assay) IC50; settings: Homo sapiens, NCI-H1792; H1792, wild-type SMARCA4
Procedure: as §1

HCC515 = assay: Cell proliferation (colony assay) IC50; settings: Homo sapiens; HCC515, mutant SMARCA4
Procedure: as §1

H322 = assay: Cell proliferation (colony assay) IC50; settings: NCI-H322; H322, mutant SMARCA4
Procedure: as §1

HCC44 = assay: Cell proliferation (colony assay) IC50; settings: Homo sapiens; HCC44, wild-type SMARCA4
Procedure: as §1

wild-type SMARCA4 cells = assay: Colony assay / cell proliferation, wild-type SMARCA4 cell lines as a group
Procedure: as §1

T1 sequence (P51531 whole entry): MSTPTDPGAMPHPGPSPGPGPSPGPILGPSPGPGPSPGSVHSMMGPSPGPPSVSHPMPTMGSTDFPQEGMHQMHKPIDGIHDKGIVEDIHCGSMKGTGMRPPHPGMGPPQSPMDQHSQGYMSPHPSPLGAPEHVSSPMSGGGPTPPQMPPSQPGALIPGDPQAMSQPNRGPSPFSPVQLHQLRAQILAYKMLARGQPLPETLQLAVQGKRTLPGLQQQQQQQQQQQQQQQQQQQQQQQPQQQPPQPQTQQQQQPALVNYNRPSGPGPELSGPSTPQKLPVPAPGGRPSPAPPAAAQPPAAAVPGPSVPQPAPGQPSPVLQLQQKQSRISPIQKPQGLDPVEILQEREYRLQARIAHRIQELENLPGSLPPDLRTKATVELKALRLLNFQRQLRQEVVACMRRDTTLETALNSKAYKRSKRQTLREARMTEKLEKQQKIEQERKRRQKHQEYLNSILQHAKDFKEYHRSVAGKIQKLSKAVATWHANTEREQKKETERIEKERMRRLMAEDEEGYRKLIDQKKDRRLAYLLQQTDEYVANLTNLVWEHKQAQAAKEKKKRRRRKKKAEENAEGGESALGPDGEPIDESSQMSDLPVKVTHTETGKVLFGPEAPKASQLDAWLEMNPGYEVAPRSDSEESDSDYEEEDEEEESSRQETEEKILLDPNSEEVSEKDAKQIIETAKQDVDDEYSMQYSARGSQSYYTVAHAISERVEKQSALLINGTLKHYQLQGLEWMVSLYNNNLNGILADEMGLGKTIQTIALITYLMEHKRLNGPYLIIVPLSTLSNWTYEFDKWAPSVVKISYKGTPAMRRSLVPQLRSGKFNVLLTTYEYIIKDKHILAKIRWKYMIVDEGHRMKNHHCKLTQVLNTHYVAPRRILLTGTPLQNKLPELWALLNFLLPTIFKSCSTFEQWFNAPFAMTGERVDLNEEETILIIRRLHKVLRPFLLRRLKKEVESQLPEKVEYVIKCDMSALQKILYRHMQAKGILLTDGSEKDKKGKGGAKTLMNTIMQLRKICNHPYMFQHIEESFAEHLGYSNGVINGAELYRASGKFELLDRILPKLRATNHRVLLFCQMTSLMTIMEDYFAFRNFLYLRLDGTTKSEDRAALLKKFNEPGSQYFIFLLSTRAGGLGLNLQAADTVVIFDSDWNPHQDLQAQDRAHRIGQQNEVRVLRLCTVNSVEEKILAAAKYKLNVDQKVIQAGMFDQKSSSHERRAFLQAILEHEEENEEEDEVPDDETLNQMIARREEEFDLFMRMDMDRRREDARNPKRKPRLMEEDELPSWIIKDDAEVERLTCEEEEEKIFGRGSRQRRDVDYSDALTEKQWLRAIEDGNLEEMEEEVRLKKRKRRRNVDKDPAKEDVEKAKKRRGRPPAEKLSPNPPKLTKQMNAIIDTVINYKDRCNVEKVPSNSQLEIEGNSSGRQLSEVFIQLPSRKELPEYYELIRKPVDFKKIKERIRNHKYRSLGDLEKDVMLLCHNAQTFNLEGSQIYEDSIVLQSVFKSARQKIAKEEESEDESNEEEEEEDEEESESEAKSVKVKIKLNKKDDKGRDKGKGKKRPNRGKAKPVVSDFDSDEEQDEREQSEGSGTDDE

DC50 (SMARCA2 [1]; H441, wild-type SMARCA4 cell line): 99 nM
DC50 (SMARCA2 [1]; H1792, wild-type SMARCA4 cell line): 94 nM
SMARCA2 degradation (western blot, in words) (SMARCA2 [1]; H1975, H1792, H2122, H441, 0.001-10 μm, increasing concentrations): degraded SMARCA2 and SMARCA4
DC50 (SMARCA2 [1]; H1975, wild-type SMARCA4 cell line, concentration at which 50% of the target protein is degraded): 103 nM
DC50 (SMARCA2 [1]; H2122, wild-type SMARCA4 cell line): 292 nM
selectivity in degrading SMARCA2 compared to SMARCA4, relative to ACBI1 (SMARCA2 [1]; wild-type SMARCA4 cell lines H1975, H1792, H2122, H441): greater than 100 times
pIC50 (HCC827): < 5.00
pIC50 (H2023): 6.32
pIC50 (HCC2279): < 5.00
pIC50 (H2228): 6.01
pIC50 (H1793): 6.05
pIC50 (H2126): ~7.70
Dmax (SMARCA2 [2]; A549, A549, mutant SMARCA4 cell line, read-out: SMARCA2 Dmax (%)): 96%
DC50 (SMARCA2 [2]; A549, mutant SMARCA4 cell line): 57 nM
DC50 (SMARCA2 [2]; H322, mutant SMARCA4 cell line): 27 nM
DC50 (SMARCA2 [2]; H838, mutant SMARCA4 cell line): 26 nM
DC50 (SMARCA2 [2]; H1693, mutant SMARCA4 cell line): 113 nM
DC50 (SMARCA2 [2]; H1793, mutant SMARCA4 cell line): 2 nM
DC50 (SMARCA2 [2]; H2023, mutant SMARCA4 cell line): 42 nM
DC50 (SMARCA2 [2]; H2126, mutant SMARCA4 cell line): 10 nM
DC50 (SMARCA2 [2]; H2228, wild-type SMARCA4 cell line): 106 nM
DC50 (SMARCA2 [2]; H2935, mutant SMARCA4 cell line): 8 nM
Dmax (SMARCA2 [2]; H2935, mutant SMARCA4 cell line, read-out: SMARCA2 Dmax (%)): 83%
Dmax (SMARCA2 [2]; HCC44, HCC44, wild-type SMARCA4 cell line, read-out: SMARCA2 Dmax (%)): 99%
DC50 (SMARCA2 [2]; HCC44, wild-type SMARCA4 cell line): 69 nM
Dmax (SMARCA2 [2]; HCC366, HCC366, mutant SMARCA4 cell line, read-out: SMARCA2 Dmax (%)): 99%
DC50 (SMARCA2 [2]; HCC366, mutant SMARCA4 cell line): 13 nM
Dmax (SMARCA2 [2]; HCC515, HCC515, mutant SMARCA4 cell line, read-out: SMARCA2 Dmax (%)): 81%
DC50 (SMARCA2 [2]; HCC515, mutant SMARCA4 cell line): 83 nM
Dmax (SMARCA2 [2]; HCC827, HCC827, wild-type SMARCA4 cell line, read-out: SMARCA2 Dmax (%)): 83%
DC50 (SMARCA2 [2]; HCC827, wild-type SMARCA4 cell line): 70 nM
DC50 (SMARCA2 [2]; HCC2279, wild-type SMARCA4 cell line): 32 nM
Dmax (SMARCA2 [2]; HCC2279, wild-type SMARCA4 cell line, read-out: SMARCA2 Dmax (%)): 99%
DC50 (SMARCA2 [2]; HOP62, wild-type SMARCA4 cell line): 33 nM
Dmax (SMARCA2 [2]; HOP-62, HOP62, wild-type SMARCA4 cell line, read-out: SMARCA2 Dmax (%)): 99%
Dmax (SMARCA2 [2]; NCI-H322, H322, mutant SMARCA4 cell line, read-out: SMARCA2 Dmax (%)): 99%
Dmax (SMARCA2 [2]; NCI-H441, H441, wild-type SMARCA4 cell line, read-out: SMARCA2 Dmax (%)): 67%
Dmax (SMARCA2 [2]; NCI-H838, H838, mutant SMARCA4 cell line, read-out: SMARCA2 Dmax (%)): 98%
Dmax (SMARCA2 [2]; NCI-H1693, H1693, mutant SMARCA4 cell line, read-out: SMARCA2 Dmax (%)): 84%
Dmax (SMARCA2 [2]; NCI-H1792, H1792, wild-type SMARCA4 cell line, read-out: SMARCA2 Dmax (%)): 89%
Dmax (SMARCA2 [2]; NCI-H1793, H1793, mutant SMARCA4 cell line, read-out: SMARCA2 Dmax (%)): 99%
Dmax (SMARCA2 [2]; NCI-H1975, H1975, wild-type SMARCA4 cell line, maximum degradation as percentage of DMSO control, read-out: SMARCA2 Dmax (%)): 93%
Dmax (SMARCA2 [2]; NCI-H2023, H2023, mutant SMARCA4 cell line, read-out: SMARCA2 Dmax (%)): 99%
Dmax (SMARCA2 [2]; NCI-H2122, H2122, wild-type SMARCA4 cell line, read-out: SMARCA2 Dmax (%)): 94%
Dmax (SMARCA2 [2]; NCI-H2126, H2126, mutant SMARCA4 cell line, read-out: SMARCA2 Dmax (%)): 99%
Dmax (SMARCA2 [2]; NCI-H2228, H2228, wild-type SMARCA4 cell line, read-out: SMARCA2 Dmax (%)): 82%
Dmax (SMARCA2 [2]; mutant SMARCA4 cells (Table 5), read-out: SMARCA2 Dmax, span over cell lines): 81 to 99%
Dmax (SMARCA2 [2]; wild-type SMARCA4 cells (Table 4), read-out: SMARCA2 Dmax, span over cell lines): 82 to 99%
pIC50 (H2122): 5.59
pIC50 (H1693): 6.85
pIC50 (H1975): < 5.00
pIC50 (H1792): 5.06
pIC50 (HCC515): 6.09
pIC50 (H322): 7.03
pIC50 (HCC44): 5.60
Structure (SMILES): Nc1nnc(-c2ccccc2O)cc1N1CCN(Cc2ccc(OCCOCCNc3cccc4c3C(=O)N(C3CCC(=O)NC3=O)C4=O)c(F)c2)CC1 (stereo not drawn) [Compound 101]
colony growth / proliferation of mutant SMARCA4 cells (in words) (mutant SMARCA4 cells; H1693, HCC515, H322, H1299, 0.001-10 μm): selectively inhibited SMARCA4 mutant cells; also recorded: selectively inhibited cell proliferation in mutant SMARCA4 cell lines
pIC50 (mutant SMARCA4 cells; mutant SMARCA4 cells (Table 5), upper end printed as >10 M, read-out: IC50, lower end of span over cell lines): ≤ 7.03
inhibition at 0.1 µM (mutant SMARCA4 cells; read-out: inhibition at 100 nM in SMARCA4 mutant cells (see FIG. 3D)): ≤ 50%
inhibition at 0.1 µM (wild-type SMARCA4 cells; read-out: inhibition at 100 nM in wild-type SMARCA4 cells (see FIG. 3D)): < 10%
pIC50 (wild-type SMARCA4 cells; wild-type SMARCA4 cells (Table 4), read-out: IC50, span over cell lines): 5.00 to 6.01
